Values after ≈ are worked out from the molar mass of the structure shown. Values joined by “and” are separate entries in the source; they are usually repeats but may differ in a detail not shown here. Identical values can stand only once. Like-named read-outs stand apart in the source and are kept apart here. Positions of bridges follow the written chain, without caps; N, C: chain ends. Non-standard residues stand in square brackets, D forms with d. Residues, ends and D or L forms follow the SMILES beside them. *: point of attachment. Octanoyl = CCCCCCCC(=O)*; Dab = NCC[C@H](N)C(=O)O
Legend:
P. aeruginosa PAO1 = system: P. aeruginosa PAO1; parameters: MICDrug / MICDrug in combo / MIC of adjuvant in combo: unit not given beside the values
P. aeruginosa = assay: MIC comparison over the P. aeruginosa strains tested; assay type: cell-based, Pseudomonas aeruginosa; conditions: all eleven P. aeruginosa strains tested (Table 2)
Excerpt: Specifically, addition of another lipid component to the amine side-chain of Dab1 reduced polymyxin's activity against Escherichia coli, P. aeruginosa, Stenotrophomonas maltophilia, A. baumannii, Klebsiella pneumoniae and Enterobacter cloacae. However, the reduction of activity against P. aeruginosa was not as drastic relative to other Gram-negative pathogens. […] We believe that this selectivity for P. aeruginosa is due to differences in exopolysaccharides and lipopolysaccharides between Gram-negative bacteria. This finding may imply the possibility of developing antipseudomonal polymyxins for pathogen-specific therapy.
The in vitro antibacterial activity of the compounds studied were assessed by broth microdilution susceptibility testing following CLSI guidelines. Bacterial cultures were grown overnight prior to the assay. The overnight grown cultures were diluted in saline to 0.5 McFarland turbidity, followed by 1:50 dilution in Mueller-Hinton broth (MHB) for inoculation to a final concentration of approximately 5×10^5 colony forming units/mL. Testing was performed on 96-well plates where the tested compounds were 2-fold serially diluted in MHB and incubated with equal volumes of bacterial inoculum at 37° C. for 18 h. […] Wells containing MHB with or without bacterial cells were used as positive or negative control, respectively.

[1] = system: P. aeruginosa CANWARD-2011 96846; assay type: cell-based, Pseudomonas aeruginosa
In short: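 Activity was measured as growth inhibition in Mueller-Hinton broth containing 2-fold dilutions of compound, inoculated at approximately 5×10^5 CFU/mL from 0.5 McFarland suspensions. Incubation lasted 18 h at 37° C., per CLSI broth microdilution.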

With `CCCCCCCC(=O)NCC[C@H](NC(=O)CCCCCCC)C(=O)N[C@H](C(=O)N[C@@H](CCN)C(=O)N[C@H]1CCNC(=O)[C@H]([C@@H](C)O)NC(=O)[C@H](CCN)NC(=O)[C@H](CCN)NC(=O)[C@H](CC(C)C)NC(=O)[C@@H](Cc2ccccc2)NC(=O)[C@H](CCN)NC1=O)[C@@H](C)O` [Compound 2, Dioctanoic Acid (Di-C8) Polymyxin] (Octanoyl-[Dab](Octanoyl)T[Dab][Dab][Dab][dF]L[Dab][Dab]T; lactam 4-C) the “MIC of adjuvant alone (MIC1, MIC2, MIC3, MIC4, MIC5, MICPMBN)” value (P. aeruginosa PAO1; adjuvant alone, one value per checkerboard, in µg/mL) was 8 and 4, the Interpretation (P. aeruginosa PAO1; combination with Aztreonam) was “Additive (An FIC index of ≤0.5, 0.5<x≤4, or >4 denotes for synergistic, additive or antagonistic interaction, respectively)” and the Interpretation (P. aeruginosa PAO1; combination with Ceftazidime) was “Additive (An FIC index of ≤0.5, 0.5<x≤4, or >4 denotes for synergistic, additive or antagonistic interaction, respectively)”. For the same molecule, the Interpretation (P. aeruginosa PAO1; combination with Chloramphenicol) was “Synergy (An FIC index of ≤0.5, 0.5<x≤4, or >4 denotes for synergistic, additive or antagonistic interaction, respectively)”, the Interpretation (P. aeruginosa PAO1; combination with Ciprofloxacin) was “Additive (An FIC index of ≤0.5, 0.5<x≤4, or >4 denotes for synergistic, additive or antagonistic interaction, respectively)” and the Interpretation (P. aeruginosa PAO1; combination with Clindamycin) was “Synergy (An FIC index of ≤0.5, 0.5<x≤4, or >4 denotes for synergistic, additive or antagonistic interaction, respectively)”. The Interpretation (P. aeruginosa PAO1; combination with Doripenem) was “Additive (An FIC index of ≤0.5, 0.5<x≤4, or >4 denotes for synergistic, additive or antagonistic interaction, respectively)”, the Interpretation (P. aeruginosa PAO1; combination with Doxycycline) was “Additive (An FIC index of ≤0.5, 0.5<x≤4, or >4 denotes for synergistic, additive or antagonistic interaction, respectively)” and the Interpretation (P. aeruginosa PAO1; combination with Fosfomycin) was “Additive (An FIC index of ≤0.5, 0.5<x≤4, or >4 denotes for synergistic, additive or antagonistic interaction, respectively)”. For the same molecule, the Interpretation (P. aeruginosa PAO1; combination with Gentamicin) was “Additive (An FIC index of ≤0.5, 0.5<x≤4, or >4 denotes for synergistic, additive or antagonistic interaction, respectively)”, the Interpretation (P. aeruginosa PAO1; combination with Linezolid) was “Additive (An FIC index of ≤0.5, 0.5<x≤4, or >4 denotes for synergistic, additive or antagonistic interaction, respectively)” and the Interpretation (P. aeruginosa PAO1; combination with Meropenem) was “Additive (An FIC index of ≤0.5, 0.5<x≤4, or >4 denotes for synergistic, additive or antagonistic interaction, respectively)”. The Interpretation (P. aeruginosa PAO1; combination with Minocycline) was “Synergy (An FIC index of ≤0.5, 0.5<x≤4, or >4 denotes for synergistic, additive or antagonistic interaction, respectively)”, the Interpretation (P. aeruginosa PAO1; combination with Moxifloxacin) was “Additive (An FIC index of ≤0.5, 0.5<x≤4, or >4 denotes for synergistic, additive or antagonistic interaction, respectively)” and the Interpretation (P. aeruginosa PAO1; combination with Novobiocin) was “Synergy (An FIC index of ≤0.5, 0.5<x≤4, or >4 denotes for synergistic, additive or antagonistic interaction, respectively)”. The Interpretation (P. aeruginosa PAO1; combination with Piperacillin) was “Additive (An FIC index of ≤0.5, 0.5<x≤4, or >4 denotes for synergistic, additive or antagonistic interaction, respectively)”, the Interpretation (P. aeruginosa PAO1; combination with Pleuromutilin) was “Additive (An FIC index of ≤0.5, 0.5<x≤4, or >4 denotes for synergistic, additive or antagonistic interaction, respectively)” and the Interpretation (P. aeruginosa PAO1; combination with Rifampicin) was “Additive (An FIC index of ≤0.5, 0.5<x≤4, or >4 denotes for synergistic, additive or antagonistic interaction, respectively)”. For the same molecule, the Interpretation (P. aeruginosa PAO1; combination with Streptomycin) was “Additive (An FIC index of ≤0.5, 0.5<x≤4, or >4 denotes for synergistic, additive or antagonistic interaction, respectively)”, the Interpretation (P. aeruginosa PAO1; combination with Tobramycin) was “Additive (An FIC index of ≤0.5, 0.5<x≤4, or >4 denotes for synergistic, additive or antagonistic interaction, respectively)” and the Interpretation (P. aeruginosa PAO1; combination with Trimethoprim) was “Additive (An FIC index of ≤0.5, 0.5<x≤4, or >4 denotes for synergistic, additive or antagonistic interaction, respectively)”. The Interpretation (P. aeruginosa PAO1; combination with Vancomycin) was “Additive (An FIC index of ≤0.5, 0.5<x≤4, or >4 denotes for synergistic, additive or antagonistic interaction, respectively)”, the “MIC of adjuvant in combo” value (P. aeruginosa PAO1; in combination with Aztreonam) was “(4)” and the “MIC of adjuvant in combo” value (P. aeruginosa PAO1; in combination with Ceftazidime) was “(2)”. The “MIC of adjuvant in combo” value (P. aeruginosa PAO1; in combination with Chloramphenicol) was “(2)”, the “MIC of adjuvant in combo” value (P. aeruginosa PAO1; in combination with Ciprofloxacin) was “(4)” and the “MIC of adjuvant in combo” value (P. aeruginosa PAO1; in combination with Clindamycin) was “(2)”. For the same molecule, the “MIC of adjuvant in combo” value (P. aeruginosa PAO1; in combination with Doripenem) was “(4)”, the “MIC of adjuvant in combo” value (P. aeruginosa PAO1; in combination with Doxycycline) was “(4)” and the “MIC of adjuvant in combo” value (P. aeruginosa PAO1; in combination with Fosfomycin) was “(4)”. For the same molecule, the “MIC of adjuvant in combo” value (P. aeruginosa PAO1; in combination with Gentamicin) was “(0.125)”, the “MIC of adjuvant in combo” value (P. aeruginosa PAO1; in combination with Linezolid) was “(4)” and the “MIC of adjuvant in combo” value (P. aeruginosa PAO1; in combination with Meropenem) was “(4)”. The “MIC of adjuvant in combo” value (P. aeruginosa PAO1; in combination with Minocycline) was “(2)”, the “MIC of adjuvant in combo” value (P. aeruginosa PAO1; in combination with Moxifloxacin) was “(2)” and the “MIC of adjuvant in combo” value (P. aeruginosa PAO1; in combination with Novobiocin) was “(2)”. For the same molecule, the “MIC of adjuvant in combo” value (P. aeruginosa PAO1; in combination with Piperacillin) was “(4)”, the “MIC of adjuvant in combo” value (P. aeruginosa PAO1; in combination with Pleuromutilin) was “(2)” and the “MIC of adjuvant in combo” value (P. aeruginosa PAO1; in combination with Rifampicin) was “(1)”. The “MIC of adjuvant in combo” value (P. aeruginosa PAO1; in combination with Streptomycin) was “(4)”, the “MIC of adjuvant in combo” value (P. aeruginosa PAO1; in combination with Tobramycin) was “(0.125)” and the “MIC of adjuvant in combo” value (P. aeruginosa PAO1; in combination with Trimethoprim) was “(4)”. The “MIC of adjuvant in combo” value (P. aeruginosa PAO1; in combination with Vancomycin) was “(4)”, the “fold lower MIC than colistin” value (P. aeruginosa) was 4-8 fold and the MIC [1] was 8 µg/mL (≈ 6.08 µM).

From patent US20210261621A1, “Preparation of Dilipid Polymixins and Use Thereof as Antimicrobial Adjuvants” (priority 2018, published 2021)
